Laboratory results taken from patent US9340492B2, “Meta-Diarylaniline or meta-diarylpyridinamine compound, preparation method and medical uses thereof” (INSTITUTE OF PHARMACOLOGY AND TOXICOLOGY ACADEMY OF …, priority 2012, dated 2016).
≈ marks a conversion by molar mass, not a printed value. Where two headings read alike, the source gives them in different places.

What was measured:
[1] = tested on: E138K drug-resistant virus; assay: Activity against drug-resistant virus E138K; format: cell-based, HIV; settings: Human immunodeficiency virus 1, read-out: Drug-resistant viruses EC50, E138K
[2] = TZM-bl cytotoxicity assay (XTT); format: cell-based; settings: human, TZM-bl cells, read-out: CC50, concentration effective to inhibit the growth of half of cells
Method: The assay was carried out by reference to the document (Dang, Z, et al. J. Med. Chem. 2009, 52, 7887-7891). In particular, in a 96-well cell culture plate, solutions of Compounds 1-57 at different concentrations (100 μl) were mixed with an equivalent volume of TZM-bl cells (from National Institutes of Health (NIH)) (5×10^5/mL), and were incubated at 37° C. for 4 d. 50 μl of freshly prepared XTT solution (1 mg/mL) containing 0.02 μM PMS was added. Optical density at 450 nm was measured 4 h later.

[3] = tested on: K101E drug-resistant virus; assay: Activity against drug-resistant virus K101E; format: cell-based, HIV; settings: Human immunodeficiency virus 1, read-out: Drug-resistant viruses EC50, K101E
NL4-3 virus = assay: Anti-HIV activity assay (TZM-bl cell model), NL4-3 wild-type; format: cell-based; settings: read-out: EC50, concentration effective to inhibit the replication of half of viruses
Method: (§1) The assay was carried out by reference to the document (Dang, Z, et al. J. Med. Chem. 2009, 52, 7887-7891). In particular, in a 96-well cell culture plate, solutions of the compounds to be tested at different concentrations were mixed with TZM-bl cells (from National Institutes of Health (NIH)) infected with 200 TCID50 NL4-3 virus, respectively. 2 days later, the culture medium was removed, 100 μl of Bright Glo reagent was added to each well, and Victor 2 luminometer was used to detect the […] of the cells.

[4] = tested on: NL4-3 virus (HIV, wild-type); assay: as above; format: cell-based; settings: human, TZM-bl cells infected with HIV-1 NL4-3 virus; CC50 (TZM-bl) / EC50 (NL4-3); read-out: SI, selective index, ratio of toxic CC50 value to active EC50 value
Method: as §1

[5] = Water-solubility at pH2.0; format: physicochemical; settings: for solubility: aqueous medium (water) at pH 2.0, pH 2, simulated gastric fluid
[6] = tested on: multi-drug resistant viral strain of HIV-1 RT (RTMDR); assay: Activity against drug-resistant virus RTMDR; format: cell-based; settings: Human immunodeficiency virus 1, read-out: Drug-resistant viruses EC50, RTMDR
[7] = Incubation experiment of human liver microsomes; format: in vitro ADME; settings: for half-life: read-out: HLM t1/2
[8] = Human immunodeficiency virus 1, NL43, TZM-bl
[9] = Human immunodeficiency virus 1, NL43, NL4-3 HIV wild-type, TZM-bl cells

Structure (SMILES) | melting point | EC50 [1] | CC50 at 4 d [2] | EC50 [3] | EC50 (NL4-3 virus; [8]) | selectivity ratio at 2 days [4] | EC50 [6] | solubility [5] | also measured
Cc1cc(/C=C/C#N)cc(C)c1Oc1cc(Nc2ccc(C#N)cc2)c([N+](=O)[O-])cc1C(F)(F)F [Compound 1, 5-(4″-cyanovinyl-2″,6″-dimethylphenoxy)-N^1-(4′-cyanophenyl)-4-trifluoromethyl-2-nitroaniline] | 248 to 250 °C | – | – | – | – | – | – | – | –
Cc1cc(CCC#N)cc(C)c1Oc1cc(Nc2ccc(C#N)cc2)c(N)cc1C(F)(F)F [Compound 2, 5-(4″-cyanoethyl-2″,6″-dimethylphenoxy)-N^1-(4′-cyanophenyl)-4-trifluoromethyl-1,2-phenylenediamine] | – | 34.4 nM | > 7100 nM | 47.6 nM | 1.13 nM | > 6280 | 3.2 nM | – | Water-solubility [5]: 0.33 µg/mL; HLM t1/2 [7]: 55.7 min
COC(=O)c1cc([N+](=O)[O-])c(Nc2ccc(C#N)cc2)cc1Oc1c(C)cc(/C=C/C#N)cc1C [Compound 3, 5-(4″-cyanovinyl-2″,6″-dimethylphenoxy)-N^1-(4′-cyanophenyl)-4-methoxycarbonyl-2-nitroaniline] | 260 to 262 °C | – | – | – | – | – | – | – | –
COC(=O)c1cc(N)c(Nc2ccc(C#N)cc2)cc1Oc1c(C)cc(CCC#N)cc1C [Compound 4, 5-(4″-cyanoethyl-2″,6″-dimethylphenoxy)-N^1-(4′-cyanophenyl)-4-methoxycarbonyl-1,2-phenylenediamine] | – | 7.5 nM | > 22700 nM | 14 nM | 4.3 nM | > 5260 | 4.1 nM | 1.21 µg/mL (≈ 2.75 µM) | HLM t1/2 [7]: 186 min
Cc1cc(/C=C/C#N)cc(C)c1Oc1cc(Nc2ccc(C#N)cc2)c([N+](=O)[O-])cc1CO [Compound 5, N^1-(4′-cyanophenyl)-5-(4″-cyanovinyl-2″,6″-dimethylphenoxy)-4-hydroxymethyl-2-nitroaniline] | 232 to 234 °C | – | – | – | – | – | – | – | –
Cc1cc(CCC#N)cc(C)c1Oc1cc(Nc2ccc(C#N)cc2)c(N)cc1CO [Compound 6, 5-(4″-cyanoethyl-2″,6″-dimethylphenoxy)-N^1-(4′-cyanophenyl)-4-hydroxymethyl-1,2-phenylenediamine] | – | 2.9 nM | > 23800 nM | 3.4 nM | 0.39 nM | 61000 | 1.8 nM | 18.8 µg/mL (≈ 45.6 µM) | HLM t1/2 [7]: 20.9 min
Cc1cc(/C=C/C#N)cc(C)c1Oc1cc(Nc2ccc(C#N)cc2)c([N+](=O)[O-])cc1C(=O)O [Compound 7, 4-carboxyl-5-(4″-cyanovinyl-2″,6″-dimethylphenoxy)-N^1-(4′-cyanophenyl)-2-nitroaniline] | 262 to 265 °C | – | – | – | – | – | – | – | –
CNC(=O)c1cc(N)c(Nc2ccc(C#N)cc2)cc1Oc1c(C)cc(CCC#N)cc1C [Compound 12, 5-(4″-cyanoethyl-2″,6″-dimethylphenoxy)-N^1-(4′-cyanophenyl)-4-(N-methyl-carbamoyl)-1,2-phenylenediamine] | – | – | > 9100 nM | 14 nM | 2.73 nM | > 3330 | – | 8.28 µg/mL (≈ 18.8 µM) | HLM t1/2 [7]: 55.7 min
COc1cc(CCC#N)cc(Br)c1Oc1ccc(N)c(Nc2ccc(C#N)cc2)n1 [Compound 26A] | – | 6.93 nM | 21000 nM | 3.89 nM | 3.25 nM | 6560 | 3.46 nM | 1.77 µg/mL (≈ 3.81 µM) | half-life [7]: 54.7 min
N#CCCc1cc(Br)c(Oc2ccc(N)c(Nc3ccc(C#N)cc3)n2)c(Br)c1 [Compound 28] | – | 4.11 nM | 8210 nM | 7.63 nM | 0.33 nM | 24900 | 0.74 nM | 3.26 µg/mL (≈ 6.35 µM) | half-life [7]: 23 min
Cc1cc(CCC#N)cc(C)c1Oc1cc(Nc2ccc(C#N)cc2)c(N)cc1CNC1CC1 [Compound 34, 5-(4″-cyanoethyl-2″,6″-dimethylphenoxy)-N^1-(4′-cyanophenyl)-4-(2-cyclopropylaminomethyl)-1,2-phenylenediamine] | – | 25.7 nM | > 5000 nM | 27.3 nM | 0.53 nM | > 9430 | 4.88 nM | 9.11 µg/mL (≈ 20.2 µM) | half-life [7]: 42 min
CCNC(=O)c1cc(N)c(Nc2ccc(C#N)cc2)cc1Oc1c(C)cc(CCC#N)cc1C [Compound 41] | – | – | > 5000 nM | – | – | > 1080 | – | – | EC50 (NL4-3 virus; [9]): 4.63 nM
Cc1cc(CCC#N)cc(C)c1Oc1cc(Nc2ccc(C#N)cc2)c(N)cc1C(=O)N(C)C [Compound 42, N^1-(4′-cyanophenyl)-5-(4″-cyanoethyl-2″,6″-dimethylphenoxy)-4-[N,N-dimethylformamido]-1,2-phenylenediamine] | – | – | > 5000 nM | – | – | > 810 | – | – | EC50 (NL4-3 virus; [9]): 6.17 nM
Cc1cc(CCC#N)cc(C)c1Oc1cc(Nc2ccc(C#N)cc2)c(N)cc1C(=O)NC1CC1 [Compound 43, N^1-(4′-cyanophenyl)-5-(4″-cyanoethyl-2″,6″-dimethylphenoxy)-4-[N-cyclopropylformamido]-1,2-phenylenediamine] | – | – | > 5000 nM | – | – | > 3760 | – | – | EC50 (NL4-3 virus; [9]): 1.33 nM

Further lines, with some results ahead:

melting point | Structure (SMILES) | EC50 [1] | CC50 at 4 d [2] | EC50 [3] | EC50 (NL4-3 virus; [8]) | selectivity ratio at 2 days [4] | EC50 [6] | solubility [5] | also measured
278 to 280 °C | Cc1cc(/C=C/C#N)cc(C)c1Oc1cc(Nc2ccc(C#N)cc2)c([N+](=O)[O-])cc1C(N)=O [Compound 9] | – | – | – | – | – | – | – | –
218 to 220 °C | CNC(=O)c1cc([N+](=O)[O-])c(Nc2ccc(C#N)cc2)cc1Oc1c(C)cc(/C=C/C#N)cc1C [Compound 11, N^1-(4′-cyanophenyl)-5-(4″-cyanovinyl-2″,6″-dimethylphenoxy)-4-(N-methylacylamino)-2-nitroaniline] | – | – | – | – | – | – | – | –
198 to 200 °C | Cc1cc(/C=C/C#N)cc(C)c1Oc1cc(Nc2ccc(C#N)cc2)c([N+](=O)[O-])cc1S(N)(=O)=O [Compound 13, N-(4′-cyanophenyl)-5-(4″-cyanovinyl-2″,6″-dimethylphenoxy)-4-aminosulfonyl-2-nitroaniline] | – | – | – | – | – | – | – | –
216 to 218 °C | Cc1cc(CO)cc(C)c1Oc1cc(Nc2ccc(C#N)cc2)c([N+](=O)[O-])cc1CO [Compound 17, N-(4′-cyanophenyl)-5-(4″-hydroxymethyl-2″,6″-dimethylphenoxy)-4-hydroxymethyl-2-nitroaniline] | – | – | – | – | – | – | – | –
275 to 277 °C | CC(=O)/C=C/c1cc(F)c(Oc2ccc([N+](=O)[O-])c(Nc3ccc(C#N)cc3)n2)c(F)c1 [Compound 29, N^2-(4-cyanoanilinyl)-6-(2,6-difluoro-4-((E)-1-methyleneacetonyl)phenoxy)-3-nitropyridine] | – | – | – | – | – | – | – | –
118 to 120 °C | Cc1cc(CCC#N)cc(C)c1Oc1cc(Nc2ccc(C#N)cc2)c(N)cc1N [Compound 35, 5-(4″-cyanoethyl-2″,6″-dimethylphenoxy)-N^1-(4′-cyanophenyl)-4-amino-1,2,4-triaminobenzene] | – | > 5000 nM | – | – | > 820 | – | – | EC50 (NL4-3 virus; [9]): 6.1 nM
